Results as given in patent publication US20240016941A1, “COMBINATION THERAPY” (priority 2020, published 2024).

Experiments:
[1] = biological target: T1, LasB elastase activity of dialysed supernatant from P. aeruginosa PAO1 (Pseudomonas aeruginosa, UniProt P14756); assay: Elastin Congo-Red assay to determine % inhibition (dialysed PAO1 supernatant); format: biochemical; details: read-out: Elastin hydrolysis % inhibition @ 25 μM inhibitor concentration
T1 construct: Culture supernatants are recovered by centrifugation and filtrated through a 0.22 μM filter; endogenous in cells; host or cells: P. aeruginosa strain PAO1, culture supernatant, filtered and dialysed
T1 sequence (P14756 198-498): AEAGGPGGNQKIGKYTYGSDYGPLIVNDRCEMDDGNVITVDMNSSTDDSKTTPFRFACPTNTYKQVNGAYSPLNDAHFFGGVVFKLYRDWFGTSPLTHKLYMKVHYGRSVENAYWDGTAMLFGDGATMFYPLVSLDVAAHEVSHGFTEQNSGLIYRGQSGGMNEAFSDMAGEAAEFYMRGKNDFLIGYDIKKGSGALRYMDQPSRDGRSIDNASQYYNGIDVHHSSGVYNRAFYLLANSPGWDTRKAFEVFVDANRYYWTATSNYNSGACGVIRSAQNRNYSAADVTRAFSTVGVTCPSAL
Method: (§1) Experiments were therefore conducted (1) to measure the potency of inhibition of compounds of the invention against purified Pseudomonas aeruginosa LasB enzyme and also experiments were conducted (2) to measure the ability of compounds of the invention to inhibit LasB-catalysed elastin degradation. The first assay uses a commercial fluorescent synthetic peptide and purified LasB enzyme. The LasB hydrolysis kinetics are measured allowing the determination of the IC50 and Ki of the inhibitors; the second is a more physiological assay using dialysed Pseudomonas aeruginosa supernatant as source of enzyme, plus its natural substrate Elastin. It is an “end point assay” that determines the percentage of LasB inhibition by each compound for one particular time point and inhibitor concentration. Technical details are described below:
The Elastin assay uses as source of enzyme dialysed supernatant from P. aeruginosa PAO1 and the Elastin Congo-Red as substrate. The natural LasB substrate, elastin, is complexed with the congo-red dye (Elastin Congo-Red, ECR). The elastolysis activity from the culture supernatant will degrade elastin and release the congo-red dye into the supernatant. This red dye release can be measured with a spectrophotometer.
Method: To determine LasB elastase activity and assess compound inhibition, an overnight culture of P. aeruginosa strain PAO1 is diluted in LB medium. After reaching an OD600nm of 0.6, this culture is diluted and incubated for additional 18-24 hours in a shaking incubator. Culture supernatants are recovered by centrifugation and filtrated through a […] filter. These supernatants are dialysed (filtration molecules <20 kDa) into a 50 mM Tris-HCl pH 7.4, 2.5 mM CaCl2 solution at 4° C. under agitation for 24 hours. Supernatant dialysed is then mixed volume/volume with the ECR suspension (20 mg/mL of ECR in 100 mM Tris-HCl pH 7.4 buffer supplemented with 1 mM CaCl2)) supplemented with Triton X100 (final concentration of 0.01%) in presence of DMSO (positive control) and/or different concentrations of compound (routinely 50 to 1.56 μM). As a negative control, the dialysed supernatant is replaced by Tris-HCl solution (50 mM Tris-HCl pH 7.4, 2.5 mM CaCl2). The mixed reaction is then incubated overnight in a 37° C. shaking incubator. The reaction supernatant is recovered by centrifugation and the release of congo-red is measured by its absorbance at 495 nm (OD495nm).
Percentage inhibition is determined using the following equation:
((OD495 nm value of positive control−OD495nm value of negative control)−(OD495nm value of treated supernatant−OD495nm value of negative control))/(OD495nm value of positive control−OD495nm value of negative control)×100.

[2] = biological target: T2, purified LasB protein from P. aeruginosa (Pseudomonas aeruginosa, UniProt P14756); assay: Fluorometric assay to determine Ki (purified LasB, Abz-Ala-Gly-Leu-Ala-p-Nitro-Benzyl-Amide substrate); format: biochemical
T2 construct: purchased Merck or Charles River Laboratories
T2 sequence (P14756 198-498): as above
Method: as §1
This assay uses commercially available substrate (Abz-Ala-Gly-Leu-Ala-p-Nitro-Benzyl-Amide (Ex: 340 nm, Em: 415 nm) from Peptide International) and purified LasB protein from P. aeruginosa (provided by Merck or Charles River Laboratories). It is performed to determine LasB elastase activity and assess compound inhibition in 96-well plate format. All compounds of Formula (I) were assessed using the method described below.
Method: 10 to 140 ng/ml purified LasB is incubated with 250 μM Abz-Ala-Gly-Leu-Ala-p-Nitro-Benzyl-Amide in 50 mM Tris-HCl pH 7.4, 2.5 mM CaCl2), 0.01% of Triton X100 at 37° C. LasB activity (corresponding to fluorescence emission induced by substrate hydrolysis) is measured over 30 min at 37° C. with a fluorescence plate reader such as the Perkin Elmer Envision or similar. Different range of inhibitor concentrations are routinely assessed depending of inhibitor potency from 0.0016 to 200 μM (2-fold dilutions series) in order to determine IC50.
The equation used to calculate the Ki from IC50 is: Ki=IC50/(1+([S]/Km)) where [S]=250 μM and Km=214 μM.

| SMILES | inhibition at 25 µM [1] | Ki [2] |
| --- | --- | --- |
| NC(=O)c1cccc2sc(CNC(=O)C3(CC(=O)O)Cc4ccccc4C3)nc12 [Example 1, 2-[2-[(4-carbamoyl-1,3-benzothiazol-2-yl)methylcarbamoyl]indan-2-yl]acetic acid] | 10 to 60% | 200 to 10000 nM |
| O=C(O)CC1(C(=O)NCc2nc3c(C(=O)N4CCCC4)cccc3s2)Cc2ccccc2C1 [Example 2, 2-[2-[[4-(pyrrolidine-1-carbonyl)-1,3-benzothiazol-2-yl]methylcarbamoyl]indan-2-yl]acetic acid] | – | 200 to 10000 nM |
| O=C(O)CC1(C(=O)NCc2nc3c(S(=O)(=O)N4CCCC4)cccc3s2)Cc2ccccc2C1 [Example 3, 2-[2-[(4-pyrrolidin-1-ylsulfonyl-1,3-benzothiazol-2-yl)methylcarbamoyl]indan-2-yl]acetic acid] | 60 to 80% | 50 to 200 nM |
| NS(=O)(=O)c1cccc2sc(CNC(=O)C3(CC(=O)O)Cc4ccccc4C3)nc12 [Example 4, 2-[2-[(4-sulfamoyl-1,3-benzothiazol-2-yl)methylcarbamoyl]indan-2-yl]acetic acid] | – | 200 to 10000 nM |
| O=C(O)CC1(C(=O)NCc2nc3c(S(=O)(=O)N4CCNCC4)cccc3s2)Cc2ccccc2C1 [Example 5, 2-[2-[(4-piperazin-1-ylsulfonyl-1,3-benzothiazol-2-yl)methylcarbamoyl]indan-2-yl]acetic acid] | – | 200 to 10000 nM |
| NC1CCN(S(=O)(=O)c2cccc3sc(CNC(=O)C4(CC(=O)O)Cc5ccccc5C4)nc23)C1 (stereo not shown) [Example 6, 2-[2-[[4-(3-aminopyrrolidin-1-yl)sulfonyl-1,3-benzothiazol-2-yl]methylcarbamoyl]indan-2-yl]acetic acid] | 60 to 80% | 50 to 200 nM |
| CS(=O)(=O)c1cccc2sc(CNC(=O)C3(CC(=O)O)Cc4ccccc4C3)nc12 [Example 7, 2-[2-[(4-methylsulfonyl-1,3-benzothiazol-2-yl)methylcarbamoyl]indan-2-yl]acetic acid] | – | 200 to 10000 nM |
| COc1cc2sc(CNC(=O)C3(CC(=O)O)Cc4ccccc4C3)nc2cc1OCC(=O)N1CCN(C)CC1 [Example 8, 2-[2-[[6-methoxy-5-[2-(4-methylpiperazin-1-yl)-2-oxo-ethoxy]-1,3-benzothiazol-2-yl]methylcarbamoyl]indan-2-yl]acetic acid] | 60 to 80% | 50 to 200 nM |
| COc1cc2sc(CNC(=O)C3(CC(=O)O)Cc4cc(F)c(F)cc4C3)nc2cc1OCCN1CCOCC1 [Example 10, 2-[5,6-difluoro-2-[[6-methoxy-5-(2-morpholinoethoxy)-1,3-benzothiazol-2-yl]methylcarbamoyl]indan-2-yl]acetic acid] | > 80% | < 50 nM |
| COc1cc2sc(CNC(=O)C3(CC(=O)O)Cc4cc(F)c(F)cc4C3)nc2cc1OCC(=O)N1CCN(C)CC1 [Example 12, 2-[5,6-difluoro-2-[[6-methoxy-5-[2-(4-methylpiperazin-1-yl)-2-oxo-ethoxy]-1,3-benzothiazol-2-yl]methylcarbamoyl]indan-2-yl]acetic acid] | 60 to 80% | 50 to 200 nM |
| COc1cc2sc(CNC(=O)C3(CC(=O)[O-])Cc4cc(F)c(F)cc4C3)nc2cc1OCC[N+]1(C)CCOCC1 [Example 13, 2-[5,6-difluoro-2-[[6-methoxy-5-[2-(4-methylmorpholin-4-ium-4-yl)ethoxy]-1,3-benzothiazol-2-yl]methylcarbamoyl]indan-2-yl]acetate] | 60 to 80% | 50 to 200 nM |
| COc1cc2sc(CNC(=O)C3(CC(=O)[O-])Cc4cc(F)c(F)cc4C3)nc2cc1OCC(=O)N1CC[N+](C)(C)CC1 [Example 14, 2-[2-[[5-[2-(4,4-dimethylpiperazin-4-ium-1-yl)-2-oxo-ethoxy]-6-methoxy-1,3-benzothiazol-2-yl]methylcarbamoyl]-5,6-difluoro-indan-2-yl]acetate] | 60 to 80% | 50 to 200 nM |
| CN(C)C1CN(C(=O)c2ccc3nc(CNC(=O)C4(CC(=O)O)Cc5ccccc5C4)sc3c2)C1 [Example 26, 2-[2-[[6-[3-(dimethylamino)azetidine-1-carbonyl]-1,3-benzothiazol-2-yl]methylcarbamoyl]indan-2-yl]acetic acid] | – | 200 to 10000 nM |
| CN(C)CCNC(=O)c1ccc2sc(CNC(=O)C3(CC(=O)O)Cc4ccccc4C3)nc2c1 [Example 28, 2-[2-[[5-[2-(dimethylamino)ethylcarbamoyl]-1,3-benzothiazol-2-yl]methylcarbamoyl]indan-2-yl]acetic acid] | – | 200 to 10000 nM |
| CN1CCN(C(=O)c2ccc3nc(CNC(=O)C4(CC(=O)O)Cc5ccccc5C4)sc3c2)CC1 [Example 29, 2-[2-[[6-(4-methylpiperazine-1-carbonyl)-1,3-benzothiazol-2-yl]methylcarbamoyl]indan-2-yl]acetic acid] | – | 200 to 10000 nM |
| CN(C)CCNC(=O)c1ccc2nc(CNC(=O)C3(CC(=O)O)Cc4ccccc4C3)sc2c1 [Example 30, 2-[2-[[6-[2-(dimethylamino)ethylcarbamoyl]-1,3-benzothiazol-2-yl]methylcarbamoyl]indan-2-yl]acetic acid] | – | 200 to 10000 nM |
| CN(C)CCCN1CCN(C(=O)c2ccc3sc(CNC(=O)C4(CC(=O)O)Cc5ccccc5C4)nc3c2)CC1 [Example 31, 2-[2-[[5-[4-[3-(dimethylamino)propyl]piperazine-1-carbonyl]-1,3-benzothiazol-2-yl]methylcarbamoyl]indan-2-yl]acetic acid] | – | 200 to 10000 nM |
| COc1cc2sc(CNC(=O)C3(CC(=O)[O-])Cc4ccccc4C3)nc2cc1C(=O)N1CCC([N+](C)(C)C)CC1 [Example 39, 2-[2-[[6-methoxy-5-[4-(trimethylammonio)piperidine-1-carbonyl]-1,3-benzothiazol-2-yl]methylcarbamoyl]indan-2-yl]acetate] | – | 200 to 10000 nM |
| O=C(O)CC1(C(=O)NCc2nc3ccc(OCCCO)cc3s2)Cc2ccccc2C1 [Example 50, 2-[2-[[6-(3-hydroxypropoxy)-1,3-benzothiazol-2-yl]methylcarbamoyl]indan-2-yl]acetic acid] | – | 50 to 100 nM |
| CCCOc1ccc2nc(CNC(=O)C3(CC(=O)O)Cc4ccccc4C3)sc2c1 [Example 51, 2-[2-[(6-propoxy-1,3-benzothiazol-2-yl)methylcarbamoyl]indan-2-yl]acetic acid] | – | 50 to 100 nM |
| COc1cc2sc(CNC(=O)C3(CC(=O)O)Cc4ccccc4C3)nc2cc1OCCCN(C)C [Example 52, 2-[2-[[5-[3-(dimethylamino)propoxy]-6-methoxy-1,3-benzothiazol-2-yl]methylcarbamoyl]indan-2-yl]acetic acid] | – | 50 to 100 nM |
| COc1cc2sc(CNC(=O)C3(CC(=O)[O-])Cc4ccccc4C3)nc2cc1OCCOCC[N+](C)(C)C [Example 54, 2-[2-[[6-methoxy-5-[2-[2-(trimethylammonio)ethoxy]ethoxy]-1,3-benzothiazol-2-yl]methylcarbamoyl]indan-2-yl]acetate] | – | 50 to 100 nM |
| COc1cc2sc(CNC(=O)C3(CC(=O)[O-])Cc4cc(F)c(F)cc4C3)nc2cc1OCC[N+](C)(C)C [Example 56, 2-[5,6-difluoro-2-[[6-methoxy-5-[2-(trimethylammonio)ethoxy]-1,3-benzothiazol-2-yl]methylcarbamoyl]indan-2-yl]acetate] | – | 50 to 100 nM |
